Like-named read-outs stand apart in the source and are kept apart here. One block for each compound: values may come before it.
Legend:
human topoisomerase I = biological target: T1, human topoisomerase I (Homo sapiens, UniProt P11387); experiment: Topoisomerase I relaxation assay (human); assay type: biochemical
T1 sequence (P11387 1-765): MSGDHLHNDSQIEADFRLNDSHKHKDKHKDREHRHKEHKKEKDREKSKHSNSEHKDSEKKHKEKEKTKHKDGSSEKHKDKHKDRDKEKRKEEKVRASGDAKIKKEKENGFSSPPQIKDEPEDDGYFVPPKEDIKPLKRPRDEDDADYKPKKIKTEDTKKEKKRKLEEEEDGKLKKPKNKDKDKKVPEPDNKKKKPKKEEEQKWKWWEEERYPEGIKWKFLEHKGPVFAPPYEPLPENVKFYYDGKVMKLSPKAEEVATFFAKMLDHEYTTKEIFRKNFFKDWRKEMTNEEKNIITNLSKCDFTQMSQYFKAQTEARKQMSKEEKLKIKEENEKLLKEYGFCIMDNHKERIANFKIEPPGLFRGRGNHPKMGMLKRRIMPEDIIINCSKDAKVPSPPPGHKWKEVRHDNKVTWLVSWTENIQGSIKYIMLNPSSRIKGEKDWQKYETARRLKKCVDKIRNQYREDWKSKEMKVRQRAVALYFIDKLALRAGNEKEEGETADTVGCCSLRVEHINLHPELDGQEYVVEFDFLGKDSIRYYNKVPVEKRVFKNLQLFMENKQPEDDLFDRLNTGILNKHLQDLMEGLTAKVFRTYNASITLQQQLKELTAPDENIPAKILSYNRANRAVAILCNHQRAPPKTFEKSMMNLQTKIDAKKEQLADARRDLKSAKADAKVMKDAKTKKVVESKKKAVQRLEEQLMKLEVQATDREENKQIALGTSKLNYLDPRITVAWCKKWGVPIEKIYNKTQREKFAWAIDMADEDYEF

Aqueous solubility = assay type: physicochemical
calf topoisomerase I = biological target: T2, calf topoisomerase I (Bos taurus, UniProt F1MN93); experiment: Topoisomerase I relaxation assay (calf); assay type: biochemical; details: Table 1, calf enzyme, read-out: Topo I (c) IC50 (converted)
T2 sequence (F1MN93 1-767): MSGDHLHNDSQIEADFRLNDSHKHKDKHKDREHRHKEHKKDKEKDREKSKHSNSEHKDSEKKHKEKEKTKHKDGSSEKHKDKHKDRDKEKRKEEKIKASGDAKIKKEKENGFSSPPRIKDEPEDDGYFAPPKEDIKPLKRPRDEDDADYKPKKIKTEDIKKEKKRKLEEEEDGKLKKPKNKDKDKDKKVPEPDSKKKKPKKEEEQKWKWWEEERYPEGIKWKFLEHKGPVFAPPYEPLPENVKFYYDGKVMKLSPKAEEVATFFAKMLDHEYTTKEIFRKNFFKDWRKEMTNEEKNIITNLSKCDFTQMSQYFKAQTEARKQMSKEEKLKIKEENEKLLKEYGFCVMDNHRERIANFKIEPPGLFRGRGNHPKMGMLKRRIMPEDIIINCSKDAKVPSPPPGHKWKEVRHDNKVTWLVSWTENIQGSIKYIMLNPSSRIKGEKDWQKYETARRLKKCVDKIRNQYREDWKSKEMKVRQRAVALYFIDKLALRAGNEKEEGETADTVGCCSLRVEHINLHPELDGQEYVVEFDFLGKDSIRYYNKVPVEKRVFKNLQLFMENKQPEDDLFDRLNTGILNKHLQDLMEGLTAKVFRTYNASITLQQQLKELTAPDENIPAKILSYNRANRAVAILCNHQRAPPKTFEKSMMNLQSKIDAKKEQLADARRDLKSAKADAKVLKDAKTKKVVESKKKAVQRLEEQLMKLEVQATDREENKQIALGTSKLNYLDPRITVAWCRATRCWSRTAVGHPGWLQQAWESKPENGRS

[1] = test system: colon cancer (HT-29) xenograft; experiment: Colon cancer (HT-29) xenograft efficacy study; assay type: in vivo, mice; details: 3-week treatment, FIG. 2
Method: (§1) In vivo toxicity studies were performed to establish the maximum tolerated dose of 217 and 227 in mice. […] A proof of concept efficacy study was also conducted in mice with 217 and 227. Based on the in vitro susceptibility to 217 and 227, and the availability of the established xenograft models, a colon cancer (HT-29) xenograft model was used.

[2] = In vivo toxicity study (maximum tolerated dose); details: daily intraperitoneal, up to 30 mg/kg for 3 weeks
Method: as §1

human topoisomerase II [3] = biological target: T3, human topoisomerase II (Homo sapiens, UniProt P11388); experiment: DNA cleavage assay (topoisomerase II poisoning); assay type: biochemical; details: various concentrations; FIG. 1
T3 sequence (P11388 whole entry): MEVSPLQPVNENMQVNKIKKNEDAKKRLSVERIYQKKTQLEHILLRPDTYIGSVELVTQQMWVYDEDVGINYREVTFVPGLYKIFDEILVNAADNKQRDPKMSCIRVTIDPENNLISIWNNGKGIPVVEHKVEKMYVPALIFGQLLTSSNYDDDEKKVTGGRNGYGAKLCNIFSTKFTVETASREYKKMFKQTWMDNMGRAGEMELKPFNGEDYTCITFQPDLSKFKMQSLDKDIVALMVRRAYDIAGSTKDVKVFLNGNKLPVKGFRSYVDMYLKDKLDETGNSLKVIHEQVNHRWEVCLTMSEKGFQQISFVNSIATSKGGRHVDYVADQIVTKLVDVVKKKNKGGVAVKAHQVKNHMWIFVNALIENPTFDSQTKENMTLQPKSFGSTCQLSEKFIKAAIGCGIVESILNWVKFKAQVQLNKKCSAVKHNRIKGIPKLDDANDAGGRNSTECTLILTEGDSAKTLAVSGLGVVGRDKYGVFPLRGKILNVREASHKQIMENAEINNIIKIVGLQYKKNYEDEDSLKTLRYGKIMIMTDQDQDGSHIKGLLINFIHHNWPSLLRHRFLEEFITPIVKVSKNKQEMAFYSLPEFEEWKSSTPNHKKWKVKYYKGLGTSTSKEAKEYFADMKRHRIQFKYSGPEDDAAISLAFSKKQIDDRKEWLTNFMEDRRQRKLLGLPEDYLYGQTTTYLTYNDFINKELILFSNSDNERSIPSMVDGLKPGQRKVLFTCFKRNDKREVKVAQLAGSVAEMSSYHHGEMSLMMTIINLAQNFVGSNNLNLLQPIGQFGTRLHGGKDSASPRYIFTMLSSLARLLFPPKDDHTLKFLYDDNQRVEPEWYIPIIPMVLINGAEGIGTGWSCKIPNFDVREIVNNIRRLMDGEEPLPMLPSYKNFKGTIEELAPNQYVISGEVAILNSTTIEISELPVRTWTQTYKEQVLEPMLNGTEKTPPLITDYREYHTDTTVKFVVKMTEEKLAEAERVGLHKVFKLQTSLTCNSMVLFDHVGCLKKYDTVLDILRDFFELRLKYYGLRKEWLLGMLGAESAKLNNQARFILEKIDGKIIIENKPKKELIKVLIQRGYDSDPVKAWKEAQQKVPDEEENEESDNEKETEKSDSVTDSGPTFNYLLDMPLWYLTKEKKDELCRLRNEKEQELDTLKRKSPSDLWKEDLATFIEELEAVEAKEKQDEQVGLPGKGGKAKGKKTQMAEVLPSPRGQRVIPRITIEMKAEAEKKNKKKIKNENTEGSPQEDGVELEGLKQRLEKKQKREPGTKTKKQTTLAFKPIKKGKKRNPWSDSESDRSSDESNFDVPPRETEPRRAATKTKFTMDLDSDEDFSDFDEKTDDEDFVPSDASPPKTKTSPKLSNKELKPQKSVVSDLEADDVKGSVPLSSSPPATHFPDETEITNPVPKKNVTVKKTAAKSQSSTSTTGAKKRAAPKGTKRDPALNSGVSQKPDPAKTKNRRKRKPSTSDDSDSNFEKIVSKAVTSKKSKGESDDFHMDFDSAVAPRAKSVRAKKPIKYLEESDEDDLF
Text: (§2) Topoisomerase poisoning results in the accumulation of covalent topoisomerase-DNA complexes, which can be detected as the generation of nicked and/or linear DNA in DNA cleavage assays. Poisoning of human topoisomerase II generate double-strand breaks that lead to the development of therapy-related acute myeloid leukemia.

E. coli DNA gyrase = E. coli DNA gyrase (Escherichia coli, UniProt P0AES4+P0AES6); experiment: DNA gyrase supercoiling assay; assay type: biochemical; details: Table 1
human topoisomerase II [4] = biological target: T3, human topoisomerase II; experiment: Topoisomerase II decatenation assay; assay type: biochemical
[5] = test system: mammalian topoisomerase I; experiment: Topoisomerase I poisoning (DNA cleavage); assay type: biochemical
Text: as §2

60 cancer cell lines = experiment: NCI 60 DTP Human Tumor Cell Line Screen; assay type: cell-based; details: for GI50: Homo sapiens, against the 60 cancer cell lines; for comparison of GI50 and LD50 values with etoposide (NCI's COMPARE program): majority of the 60 cancer cell lines; for mean growth: single dose (10 μM) screening
Text: Both 217 and 227 were submitted to the NCI for the 60 DTP Human Tumor Cell Line Screen.

[6] = test system: colon (HT-29) and leukemia (K-562) cell lines; experiment: MTT anti-proliferative assay; assay type: cell-based; details: HT-29 and K-562
Method: An MTT assay was performed with 277 and with the following compounds:
[drawing 68] against colon (HT-29) and leukemia (K-562) cell lines to determine their in vitro anti-proliferative activities.

[7] = Table 2, relaxation assay, read-out: Topo I IC50
[8] = Table 1, human enzyme, relaxation assay, read-out: Topo I (h) IC50
[9] = read-out: IC50 human topoisomerase I in the relaxation assay
[10] = Table 1, decatenation assay, read-out: Topo II IC50
[11] = Table 2, decatenation assay, read-out: Topo II IC50
[12] = read-out: IC50 human topoisomerase II in the decatenation assay

- IC50 (human topoisomerase I; [7]): 44.4 ± 0.8 µM
Structure (SMILES): COc1c(N2C[C@@H]3CCCN[C@@H]3C2)c(F)cc2c(=O)c(C(=O)O)cn(Cc3ccc(-c4ccccc4)cc3)c12 [Compound 205]

- IC50 (human topoisomerase I; [7]): 54.2 ± 3.2 µM
Structure (SMILES): COc1c(N2CCNCC2)c(F)cc2c(=O)c(C(=O)O)cn(Cc3ccc(-c4ccccc4)cc3)c12 [Compound 207]

- IC50 (human topoisomerase I; [7]): 132 ± 3.5 µM
Structure (SMILES): COc1c(N2CCNCC2)c(F)cc2c(=O)c(C(=O)O)cn(Cc3ccc4ccccc4c3)c12 [Compound 215]

- IC50 (human topoisomerase I; [7]): 127.9 ± 0.8 µM
Structure (SMILES): COc1c(N2C[C@@H]3CCCN[C@@H]3C2)c(F)cc2c(=O)c(C(=O)O)cn(Cc3ccc4ccccc4c3)c12 [Compound 213]

Continued, compound first:

Structure (SMILES): COc1c(N2CC[C@@H](CN)C2)c(F)cc2c(=O)c(C(=O)O)cn(Cc3ccc4ccccc4c3)c12 [Compound 227, (S)-7-(3-(aminomethyl)pyrrolidin-1-yl)-6-fluoro-8-methoxy-1-(naphthalen-2-ylmethyl)-4-oxo-1,4-dihydroquinoline-3-carboxylic acid]
- aqueous solubility (Aqueous solubility): limited aqueous solubility
- IC50 (calf topoisomerase I): 66.6 µM
- inhibition of colon cancer proliferation in vivo [1]: exhibited activity but was not as effective as 217
- IC50 (human topoisomerase I; [8]): 43.7 ± 0.6 µM
- IC50 (human topoisomerase I; [9]): 43.1 µM
- effect on animal weight gain [2]: did not have any significant effect on animal weight gain
- tolerability [2]: well-tolerated
- increase in the amounts of linear DNA (human topoisomerase II [3]): did not detect any significant increase (two-fold or less)
- IC50 (E. coli DNA gyrase): > 200 µM
- IC50 (human topoisomerase II [4]; [10]): 165 ± 20.2 µM
- IC50 (human topoisomerase II [4]; [11]): 165 ± 20.2 µM
- IC50 (human topoisomerase II [4]; [12]): 165 µM
- poisoning of mammalian topoisomerase I [5]: did not poison mammalian topoisomerase I
- GI50 (60 cancer cell lines): 3.1 µM
- comparison of GI50 and LD50 values with etoposide (NCI's COMPARE program) (60 cancer cell lines): significantly more effective than etoposide
- mean growth (60 cancer cell lines): 44.1%

Structure (SMILES): NC[C@@H]1CCN(c2cc3c(cc2F)c(=O)c(C(=O)O)cn3Cc2ccc(-c3ccccc3)cc2)C1 [Compound 065]
- anti-proliferative activity, fold higher than that of 217 [6]: 2-5 fold

Structure (SMILES): NC[C@@H]1CCN(c2cc3c(cc2F)c(=O)n(N)c(=O)n3Cc2ccc(-c3ccccc3)cc2)C1 [Compound 215a]
- IC50 (human topoisomerase I; [7]): 25.9 ± 5.4 µM

Structure (SMILES): COc1c(N2CC[C@@H](CN)C2)c(F)cc2c(=O)c(C(=O)O)cn(Cc3ccc(-c4ccccc4)cc3)c12 [Compound 217, (S)-1-([1,1′-biphenyl]-4-ylmethyl)-7-(3-(aminomethyl)pyrrolidin-1-yl)-6-fluoro-8-methoxy-4-oxo-1,4-dihydroquinoline-3-carboxylic acid]
- aqueous solubility (Aqueous solubility): limited aqueous solubility
- IC50 (calf topoisomerase I): 32.2 µM
- inhibition of colon cancer proliferation in vivo [1]: inhibited the proliferation of colon cancer in vivo as well as fluorouracil (5-FU)
- IC50 (human topoisomerase I; [8]): 26 ± 0.5 µM
- IC50 (human topoisomerase I; [9]): 26.5 µM
- effect on animal weight gain [2]: did not have any significant effect on animal weight gain
- tolerability [2]: well-tolerated
- increase in the amounts of linear DNA (human topoisomerase II [3]): did not detect any significant increase (two-fold or less)
- IC50 (E. coli DNA gyrase): 1370 ± 10.1 µM
- IC50 (human topoisomerase II [4]; [10]): 128 ± 4.7 µM
- IC50 (human topoisomerase II [4]; [11]): 128 ± 4.7 µM
- IC50 (human topoisomerase II [4]; [12]): 128 µM
- poisoning of mammalian topoisomerase I [5]: did not poison mammalian topoisomerase I
- GI50 (60 cancer cell lines): 1.9 µM
- comparison of GI50 and LD50 values with etoposide (NCI's COMPARE program) (60 cancer cell lines): significantly more effective than etoposide
- mean growth (60 cancer cell lines): 40.3%

Structure (SMILES): NC[C@@H]1CCN(c2cc3c(cc2F)c(=O)n(N)c(=O)n3Cc2ccc3ccccc3c2)C1 [Compound 213a]
- IC50 (human topoisomerase I; [7]): 59 ± 2.9 µM

— US10981875B2, “Quinolone-based compounds with anticancer activity” (Regents of the University of Minnesota, priority 2016, dated 2021)
